This is an account of results in ChEMBL document CHEMBL3507680, “University of Dundee, Gates Library screen for HepG2 cell viability”.

A short description of this data set: Human HepG2 cell viability assay in 384 well format. Type of data set: toxicity, cell-based. Set-up: dose 125 nL, time 70.5 hour; concentration not given beside the values. The conditions noted are these: HepG2 cells, read-out: Inhibition.
In the case of `CCC1(C)Cc2ccccc2-c2nc(NCCO)nc(O)c21` (stereo not drawn), the cytotoxicity at 70.5 h is -26.4%.
The result for `O=c1[nH]c(NCCCO)nc2c1C1(CCCC1)Cc1ccccc1-2` reads -23.5%; that for `O=c1[nH]c(NCCO)nc2c1C1(CCCC1)Cc1ccccc1-2`, 18.4%.
As for `CN(C)CC(=O)N1CCc2ncnc(-c3ccoc3)c2CC1`, the cytotoxicity at 70.5 h is -0.0529%.
The result for `CN1C(=O)CCC12CCCN(C(=O)c1ccoc1)C2` (stereo not drawn) reads -1.96%.
The result for `Cc1cnc(CNC(=O)c2cc3c(s2)CCN3S(C)(=O)=O)cn1` reads -0.66%; that for `CS(=O)(=O)N1CCc2c(nnn2CC2CC2)C1COCC1CC1` (stereo not drawn), -1.97%.
The result for `CNC(=O)NC1CC2(CCNCC2)c2ccc(C)cc21` (stereo not drawn) reads 18.2%; that for `CC(C)CN1C(=O)CO[C@@H]2CN(C(=O)N(C)C)C[C@H]21`, 2.11%.
For `O=C(NCCc1ccccc1)N1CC[C@@H]2CNS(=O)(=O)[C@@H]2CC1`, the cytotoxicity at 70.5 h turned out to be 0.679%.
Under `CC(C)CN1C(=O)CO[C@@H]2CN(C(=O)CC(F)(F)F)C[C@H]21` stands -1.53%; under `CC(C)CN1C(=O)CO[C@@H]2CN(C(=O)N3CCOCC3)C[C@H]21`, -2.58%; under `CC(C)CN1C(=O)CO[C@@H]2CN(C(=O)[C@H]3CCCO3)C[C@H]21`, -1.2%.
Consider `CCN1C(=O)CC[C@@H]2[C@H]1CCN2C(=O)Cc1cccc(OC)c1`, for which the cytotoxicity at 70.5 h was 0.943%.
Under `COc1cccc(CN2CCC3(CCN(c4ncc(C)cn4)C3)C2=O)c1` (stereo not drawn) stands -0.0299%; under `Cc1ccc(C(=O)N2CC[C@@H]3[C@H]2CCC(=O)N3CC2CC2)o1`, -0.589%; under `COC[C@]12COC[C@H]1CN(S(=O)(=O)c1cccnc1)C2`, -13%.
Take `CC(C)N1CCN(C)C2(CCN(C(=O)c3ccnnc3)CC2)C1=O`: the cytotoxicity at 70.5 h was -4.95%.
Under `CS(=O)(=O)N1CCCC12CCCN(c1nccs1)C2` (stereo not drawn) stands -3.55%; under `CC(C)C(=O)N1CC[C@@H]2CN(Cc3ccncc3)S(=O)(=O)[C@@H]2CC1`, -3.99%.
The result for `O=C(c1cc[nH]n1)N1CC[C@@H]2CN(Cc3cccnc3)S(=O)(=O)[C@@H]2CC1` reads -1.58%; that for `CCc1cnc(N2CC[C@@H]3CN(C(=O)c4ccco4)CCO[C@@H]3C2)nc1`, -10.8%.
The result for `CN(C)CCNC(=O)c1noc2c1CN(C(=O)N(C)C)CC2` reads -6.62%; that for `O=C(c1ccnnc1)N1CCC2(CCN(c3ccsc3)C2=O)C1` (stereo not drawn), -0.84%.
Take `CO[C@@H]1CC[C@H]2[C@H]1OCCN2C(=O)c1ccco1`: the cytotoxicity at 70.5 h is -1.75%.
The result for `Cn1nc(C#N)c2c1CN(C(=O)c1ccnnc1)CCC2` reads 0.526%.
The result for `Cc1nc(CN2CCO[C@H]3CN(C(=O)Cc4cccs4)C[C@H]32)cs1` reads -3.66%; that for `O=C1NCC[C@]12CN(Cc1ccsc1)C[C@H]2c1ccccc1`, -4.93%.
The result for `CCO[C@@H]1CC[C@H]2[C@H]1OCCN2C(=O)c1ccc(C)o1` reads -4.6%.
Regarding `Cc1ccc(CC(=O)N2CCn3cc(Cn4cncn4)nc3C2)cc1`, the cytotoxicity at 70.5 h is -7.66%.
As to `CO[C@H]1CC[C@H]2[C@H]1OCCN2C(=O)c1ccc(C)nc1`, the cytotoxicity at 70.5 h is -2.48%.
Regarding `Cc1ccc(C(=O)N2C[C@@H]3COC[C@]3(COCc3cccnc3)C2)cn1`, the cytotoxicity at 70.5 h is -6.21%.
Under `Cc1nc(C(=O)N2C[C@@H]3COC[C@]3(COCc3cccnc3)C2)cs1` stands -6.56%; under `CCn1c(SCC(=O)N2CCOCC2)nc2cc(C)[nH]c2c1=O`, 0.779%; under `Cc1cc2nc(SCC(=O)N3CCCCC3)n(C)c(=O)c2[nH]1`, 19.2%.
The result for `Cc1cc2nc(SCC(=O)N3CCOCC3)n(C(C)C)c(=O)c2[nH]1` reads -5.42%; that for `COc1ccc(N2CCN(CC(O)c3cc(C)ccc3C)CC2)cc1` (stereo not drawn), -14.7%; that for `OCCCNc1nc(O)c2c(n1)-c1ccccc1CC21CCCCC1`, -9.73%.
The result for `COc1ccccc1CCNC(=O)CC1(Cn2cnnn2)CCCCC1` reads -20.4%.
With `CC(C)c1ccc(NC(=O)Cn2cc(I)cn2)cc1`, the cytotoxicity at 70.5 h is -24.1%.
As to `CC(C)CNC(=O)CC1(Cn2cnnn2)CCCCC1`, the cytotoxicity at 70.5 h is -12.5%.
Under `COc1cccc2c1ccn2CC(=O)N1CCCC(C(=O)O)C1` (stereo not drawn) stands 21.4%; under `COc1ccc(C(=O)COc2coc(CN3CCCCC3)cc2=O)cc1`, -5.06%.
Under `COc1cccc(C(=O)Oc2cc(=O)n3cccc(C)c3n2)c1` stands -24.8%; under `CCCOc1ccc(C(=O)Oc2cc(=O)n3cccc(C)c3n2)cc1`, -0.525%; under `Cc1ccc(C(=O)Oc2cc(=O)n3cccc(C)c3n2)cc1`, 15.3%.
The result for `Cc1cccn2c(=O)cc(OC(=O)c3ccc(OC(C)C)cc3)nc12` reads -14.3%.
`COCCNC(=O)Cn1c(-c2ccc(Cl)cc2)nc(C)c(CCO)c1=O`: the cytotoxicity at 70.5 h turned out to be 3.28%.
Under `COCCCNc1c(C#N)c2c(c3nncn13)CN(C)CC2` stands -28.4%; under `CCOc1ccc(Br)cc1C1CCCCN1` (stereo not drawn), -12.6%.
Under `Cc1cc(CN2C[C@H]3CCC[C@@]3(COCC3CCOCC3)C2)no1` stands 0.596%.
The result for `CCCC(=O)N1CC[C@@H]2[C@H](CC1)N(Cc1cccc(C)n1)CCS2(=O)=O` reads -2.09%; that for `N#Cc1ccc(N2CCC3(CC2)CC(Oc2cccnc2)CO3)cc1` (stereo not drawn), 9.42%.
As to `N#Cc1cccc(CN2CC3(CCCCN3c3cncnc3)CC2=O)c1` (stereo not drawn), the cytotoxicity at 70.5 h was -0.331%.
Under `Cc1cccc(CN2Cc3[nH]nc(COCCO)c3C2)n1` stands -0.969%; under `Cn1cccc1C(=O)N1CC[C@H]2[C@H]1CCN2CC1CCOCC1`, -0.0713%; under `Cc1noc(C)c1CN1C[C@@H]2CN(C(=O)c3cnccn3)C[C@@H]2C1`, 0.0874%.
The result for `CN(C)C(=O)C1CN(Cc2ccsc2)Cc2ccnn2C1` (stereo not drawn) reads 12.7%; that for `Cn1cccc1C(=O)N1CC[C@H]2[C@H]1CCN2CC1CC1`, -0.69%; that for `c1cncc(COC2COC3(CCN(c4cnccn4)CC3)C2)c1` (stereo not drawn), 15.1%.
The result for `CNC(=O)COC1COC2(CCN(c3ncccn3)CC2)C1` (stereo not drawn) reads -1.44%; that for `CC(C)NC(=O)N1CCc2onc(C(=O)NCCN(C)C)c2C1`, -2.85%; that for `CC(C)C(=O)N1CCc2onc(C(=O)NCCN(C)C)c2C1`, -5.11%.
For the compound `O=C(c1cc[nH]n1)N1CC[C@@H]2CN(Cc3ccncc3)S(=O)(=O)[C@@H]2CC1`, the cytotoxicity at 70.5 h is -5.13%.
Under `COc1cc(N2C[C@@H]3COC[C@]3(C(=O)NC3CC(F)(F)C3)C2)ncn1` stands -4.63%.
For the compound `CNC(=O)c1cc2c(nc1N(C)C)CCN(S(=O)(=O)N(C)C)CC2`, the cytotoxicity at 70.5 h worked out at 4.98%.
Turning to `COc1ccc2c(c1)C1(CCN(Cc3cnn(C)c3)CC1)N(C)CC2`, the cytotoxicity at 70.5 h was -0.704%.
Turning to `COCC1CC2(CCN(C(=O)c3ccc(C)nc3)CC2)CO1` (stereo not drawn), the cytotoxicity at 70.5 h is -5.4%.
Under `Cc1noc([C@@H]2C[C@@H]3CCN(CC4CCOCC4)C[C@H]3O2)n1` stands -4.62%.
The result for `Cc1ccc(N2CC3(COCCN(Cc4cnn(C)c4)C3)OCC2=O)s1` (stereo not drawn) reads 0.295%; that for `c1ccc(CN2C[C@H]3CCC[C@@]3(COCC3CCOCC3)C2)nc1`, 0.897%; that for `c1ccc(CN2C[C@@H]3COC[C@]3(COCC3CCOCC3)C2)nc1`, 1.04%.
Under `Cc1nc2c(c(NC(C)C)n1)CCN(Cc1cccnc1)CC2` stands 4.65%; under `CC(C)NC(=O)C1CN(Cc2ccsc2)Cc2ccnn2C1` (stereo not drawn), 1.63%.
For the compound `Cc1ccsc1CN1CCC2(CC1)CC(OCc1cccnc1)CO2` (stereo not drawn), the cytotoxicity at 70.5 h is -0.0736%.
The result for `Fc1cnc(N2CCC3(CC2)CC(OCc2cccnc2)CO3)nc1` (stereo not drawn) reads -0.216%; that for `Cc1cnc(N2CCC3(CC2)CC3CN(C)Cc2cccnc2)nc1` (stereo not drawn), 2.52%; that for `c1csc(CN2CCC3(CC2)CCN(CC2CCOCC2)C3)n1`, 0.161%.
The result for `Cc1nc(CN2C[C@@H]3CCCO[C@@H]3[C@H](N(C)C(C)C)C2)cs1` reads -1.04%.
The result for `COCCN1C(=O)CC[C@]12CC[C@@H](NCc1cccnc1OC)CC2` reads -2.58%.
Turning to `c1csc(CN2CCC3(COCCN(CC4CC4)C3)C2)n1` (stereo not drawn), the cytotoxicity at 70.5 h is -3.37%.
The result for `O=C(c1ccncc1)N1CC[C@@H]2[C@@H](CC1)OCCN2c1cccnc1` reads -7.36%.
The result for `CO[C@H]1CCN(c2ncc(F)cn2)[C@@H]2CN(Cc3ccco3)C[C@H]12` reads -6.95%; that for `CN1C[C@@H]2CN(Cc3ccsc3)CCC[C@]2(C(=O)O)C1`, -2.55%; that for `CCOC(=O)[C@]12CCCN(Cc3ccsc3)C[C@H]1CN(CCOC)C2`, -5.12%.
Under `CNC(=O)c1cc2c(nc1N(C)C)CCN(C)CC2` stands -2.14%; under `O=S(=O)(NCC1OCCc2cn(Cc3ccccn3)nc21)C1CC1` (stereo not drawn), -0.93%; under `CCOC(=O)[C@]12CCCN(Cc3nccs3)C[C@H]1CN(CC(C)C)C2`, -3.1%.
As for `CN(Cc1cccnc1)CC1CC12CCN(c1nncs1)CC2` (stereo not drawn), the cytotoxicity at 70.5 h is -12.3%.
Under `c1ccc(Cn2cc3c(n2)C(CNCC2CCOCC2)OCC3)nc1` (stereo not drawn) stands -1.54%; under `COc1ncccc1CN1CC[C@H]2[C@H]1CCN2CCN(C)C`, -1.63%; under `CCOc1ccc(Br)cc1C1CCCN1` (stereo not drawn), 18.6%.
The result for `Cc1ccc(C(=O)CN(C2=NCCCCC2)c2ccccc2)cc1` reads -23.6%.
